Data: patent US20230130831A1, “METHODS FOR DETECTING AND TREATING JOINT DISEASE” (Washington University, priority 2021, published 2023)
Where a SMILES comes first, the peptide text is derived from it. Bridges are numbered along the chain shown (N, C = ends). [ ]: non-standard residue; d: D form. The star is where a group is joined. X1 = CC1(C)C(/C=C/C=C/C=C/C=C2/N(CCC(=O)*)c3ccc4ccccc4c3C2(C)C)=[N+](CCC(=O)[O-])c2ccc3ccccc3c21

How the values were obtained:
[1] = tested on: C57BL/6 mice with induced arthritis (K/BxN serum transfer); assay: Serum transfer arthritis: clinical paw scores and ankle thickness after treatment; format: in vivo, mouse
Method: To establish serum transfer arthritis (STA), male 6-8 weeks old C57BL/6J mice were injected intraperitoneally with 150-175 μL of serum derived from F1 mice (8-9 weeks old). Day 0 denoted induction of serum transfer/disease. Clinical manifestation of arthritis in each paw was assessed daily on a scale of 0-3 with 0=no swelling or erythema, 1=slight swelling or erythema, 2=moderate erythema and swelling in multiple digits or entire paw, and 3=pronounced erythema and swelling of an entire paw, with a maximum score of 12 per mouse. The ankle thickness of two hind paws was measured using calipers. Animals were monitored for distress during arthritis induction, including their ability to move around the cage and access food/water. Experiments were blinded, where the technician responsible for clinical assessment of paw score and ankle measurements was blinded to treatment groups. […] Clinical paw scores and ankle measurements were obtained daily. […] Mice received intraperitoneal DEX (10 mg/kg/dose) daily over 6 days. Clinical paw scores and ankle measurements were obtained daily. […] C57BL/6 mice with induced arthritis (K/Bxn serum transfer) were imaged with 6 nmol intravenous LS301 at day 4 post-disease induction. […] Individual limbs of the mice were scored for paw edema and measured for ankle thickness by calipers.

pANXA2 = pANXA2 (Homo sapiens, UniProt P07355); details: previously found; cited from earlier work
[2] = tested on: Raw 264.7 macrophage cells; assay: In-vitro anti-inflammatory effect: LPS-induced cytokines by cytokine bead array; format: cell-based; details: combined with near-infrared (780 nm) laser irradiation
Method: MTX alone and controls. Raw 264.7 macrophage cells were treated with methotrexate (MTX), LS301-MTX, LS301 alone, or LS301 combined with near-infrared (780 nm) laser irradiation. Levels of inflammation-associated (LPS-induced) cytokines, including IL-6 and IL-10, were measured by cytokine bead array.

[3] = tested on: C57BL/6J mice with serum transfer arthritis; details: mouse, in vivo
Method: Animals were shaved. Excess hair was removed using commercially available hair removal cream. Mice were anesthetized with isoflurane for injection and imaging procedures. LS301 stock (or LS301-methotrexate or LS301-methylprednisolone derivative stock) in dimethyl sulfoxide solution was diluted in phosphate-buffered saline to a final concentration of 60 μM and injected via tail vein into mice. In-vivo near-infrared fluorescence using 785 nm excitation and 820 nm emission filters was assessed pre-injection, post-injection, and/or at indicated time points post-injection with a Pearl Small Animal Imaging System (LICOR Biotechnology, Lincoln, Nebr.). Regions of interest (ROIs) for fluorescence quantitation were drawn and analyzed using the Pearl Small Animal Imaging System software.
C57BL/6J mice with serum arthritis (days 5-6 post serum transfer) (left) or control C57BL/6J mice (right) were injected intravenously with 6 nmol LS301. […] Near-infrared fluorescence images were taken on the Pearl animal imaging system with λ=820 nm. […] ROIs were drawn around each organ/limb of interest and quantitated using the Pearl animal imaging system software.
C57BL/6 mice with induced arthritis (K/Bxn serum transfer, days 5-6 post serum transfer) were injected subcutaneously (flank) with 6 nmol LS301. […] Near-infrared fluorescence images were taken on Pearl Imaging System with λ=800 nm.

[4] = tested on: K/BxN (F1) mice with spontaneous arthritis; assay: Whole-body near-infrared fluorescence imaging in K/BxN spontaneous arthritis mice
Method: The K/BxN mice with spontaneous arthritis (F1) were maintained in the laboratory. To establish serum transfer arthritis (STA), male 6-8 weeks old C57BL/6J mice were injected intraperitoneally with 150-175 μL of serum derived from F1 mice (8-9 weeks old). Day 0 denoted induction of serum transfer/disease. Clinical manifestation of arthritis in each paw was assessed daily on a scale of 0-3 with 0=no swelling or erythema, 1=slight swelling or erythema, 2=moderate erythema and swelling in multiple digits or entire paw, and 3=pronounced erythema and swelling of an entire paw, with a maximum score of 12 per mouse. The ankle thickness of two hind paws was measured using calipers. Animals were monitored for distress during arthritis induction, including their ability to move around the cage and access food/water.
In the K/BxN (F1) mice with spontaneous arthritis, inflammation occurs progressively in the paws, ankle, and knee joints leading to measurable local erythema and swelling. F1 mice with severe arthritis (9-10 weeks old) were injected intravenously with LS301 and imaged 18 h post-injection for near-infrared fluorescence using the Pearl Small Animal Imaging System.
Arthritic or control (non-diseased) mice were injected intravenously with 6 nmol LS301. […] Images shown represented at least two independent experiments and were taken at 18 h post-injection with mice in dorsal orientation.
Mice were injected intravenously with 6 nmol LS301. […] Images shown were taken at 18 h post-injection with mice in dorsal orientation. (A) Early stage RA (3-4 week old K/Bxn mice). (B) Intermediate stage RA ([…] K/Bxn mice). (C) Late-stage RA (9-10 week old K/Bxn mice). (D) Normal (control) C57BL/6J mice. (E) K/Bxn mice (3-4 weeks old) were injected with cypate dye (control) instead of LS301.
K/BxN mice (9-10 wk. old) were injected intravenously with 6 nmol LS301.

Sequence of pANXA2 (P07355 whole entry): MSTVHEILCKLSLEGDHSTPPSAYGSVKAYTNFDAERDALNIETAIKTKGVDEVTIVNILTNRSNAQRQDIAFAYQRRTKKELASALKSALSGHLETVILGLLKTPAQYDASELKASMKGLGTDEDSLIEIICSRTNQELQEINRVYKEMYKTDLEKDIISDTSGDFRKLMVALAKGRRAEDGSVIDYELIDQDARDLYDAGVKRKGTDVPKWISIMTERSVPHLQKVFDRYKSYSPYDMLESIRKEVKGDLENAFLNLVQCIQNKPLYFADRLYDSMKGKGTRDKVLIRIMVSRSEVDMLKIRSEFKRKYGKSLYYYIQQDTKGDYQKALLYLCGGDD

For `CC1(C)C(/C=C/C=C/C=C/C=C2/N(CCC(=O)N[C@@H]3CSSC[C@@H](C(=O)N[C@@H](CCCCN)C(=O)O)NC(=O)[C@@H]4CCCN4C(=O)[C@H](CO)NC(=O)[C@H](CC(=O)O)NC(=O)[C@H](CCCNC(=N)N)NC(=O)CNC3=O)c3ccc4ccccc4c3C2(C)C)=[N+](CCC(=O)[O-])c2ccc3ccccc3c21` [LS301, cypate-cyclic (DCys-Gly-Arg-Asp-Ser-Pro-Cys)-Lys-OH] (X1-[dC]GRDSPCK-OH; disulfide 1-7), the “effect on disease progression” value ([1]; imaging dose (6 nmol), LS301 alone) is given as “did not significantly affect disease progression”, the “affinity for pANXA2” value (pANXA2) is given as “high affinity” and the “inflammatory state of macrophages (LPS-induced cytokines incl. IL-6, IL-10)” value [2] is given as “suppress the inflammatory state of macrophages”. For the same compound, the “kidney signal, arthritic mice vs controls” value [3] was “possible nonsignificant trend toward increased kidney signal in arthritic mice when compared to controls”, the “clearance from the body” value ([4]; mouse, in vivo, iv) was 2.5 days and the “time point of contrast post-injection” value ([4]; mouse, in vivo, iv) was ~18 h.
For `CC1(C)C(/C=C/C=C/C=C/C=C2/N(CCC(=O)O)c3ccc4ccccc4c3C2(C)C)=[N+](CCC(=O)[O-])c2ccc3ccccc3c21` [cypate, reference compound], the “accumulation in extremities / regions of arthritic joint disease” value ([4]; K/BxN F1 arthritic mice, i.v., 18 h) was “No accumulation was found in extremities”.
In the case of `CN(Cc1cnc2nc(N)nc(N)c2n1)c1ccc(C(=O)N[C@@H](CCC(=O)O)C(=O)O)cc1` [methotrexate, reference compound], the clinical scores ([1]; three doses i.p. 2 mg/kg/dose over seven days, day 23 post-treatment initiation) is reported as “clinical scores of mice had significantly decreased”.
